What all share (format): cell-based, human
The subject of test [1] is Cancer cells including pancreatic, bladder, kidney, colon, breast, lung, liver and osteosarcomas. Put plainly: CellTiter Glo cell viability assay, panel of cancer cell lines. As to conditions: SAR discussion based on IC50 values in Tables 1 to 5; compared with 1 [KYN-001]. The method, then: Compounds 1 to 15 were evaluated and their effect on cancer growth examined in cell viability assays on multiple cancer types (Tables 1 to 5). Cancer cells including pancreatic, bladder, kidney, colon, breast, lung, liver and osteosarcomas obtained from ATCC (American Type Culture Collection) were authenticated before use by Short Tandem Repeat genomic analysis (Reid Y, Storts D, Riss T and Minor L. Authentication of Human Cell Lines by STR DNA Profiling Analysis. 2013 May 1. In: Markossian S, Sittampalam G S, Grossman A, et al., editors. Assay Guidance Manual. Bethesda (MD): Eli Lilly & Company and the National Center for Advancing Translational Sciences; 2004.). Experimental protocol for each cancer cell line was verified and optimized according to literature reports before use (Tables 1 to 3).
(§1) 1.7*10^3 cells/well were seeded in quadruplicates in 96-well plate after plating. Drugs were added at 5 μM and 2-fold dilutions over 18 concentrations (0.000038146-5 […] range) to generate a dose-response curve. Cell growth was assessed on day 1, 3 and 5 after drug treatments using the CellTiter Glo Luminescence Cell Viability Assay (Promega) according to manufacturer's protocol. Thermo Scientific Varioskan LUX Multimode Microplate instrument was used for plate reading. Data are expressed as mean luminescence (arbitrary units) ±S.D.
(§2) Cell Viability Assays were employed to determine the concentration of Compound 1 (KYN-001) and analogues where the response is reduced by half. For each treatment of cancer cells, 1, 2, 5, 10 and 20 μM solutions of compounds were applied. GraphPad Prism 7 software was used to fit dose response curves. Relative Luminescence Units were plotted against the log values of the doses used and the nonlinear regression model was used for data analysis.
(§3) The protocol for cell proliferation was optimized for Compound 8 (KYN-119) to enable a more accurate assessment of its low IC50 value. In this protocol, 18 dosages (2 fold dilutions ranging from 0.000038146 to 5 μM) were applied to cells seeded in 96-well plates, and Luminescence was measured after 1, 3 and 5 days upon treatments.
A general note: ATP-based viability assays read luminescence as a measure of living cells.

The next test relates to Kidney A-498. Put plainly: CellTiter Glo cell viability assay. As to conditions: read-out: IC50. The method, then:
1.7*10^3 cells/well were seeded in quadruplicates in 96-well plate after plating. […] Cell growth was assessed on day 1, 3 and 5 after drug treatments using the CellTiter Glo Luminescence Cell Viability Assay (Promega) according to manufacturer's protocol. Thermo Scientific Varioskan LUX Multimode Microplate instrument was used for plate reading. Data are expressed as mean luminescence (arbitrary units) ±S.D.
Cell Viability Assays were employed to determine the concentration of Compound 1 (KYN-001) and analogues where the response is reduced by half. […] GraphPad Prism 7 software was used to fit dose response curves. Relative Luminescence Units were plotted against the log values of the doses used and the nonlinear regression model was used for data analysis.
The protocol for cell proliferation was optimized for Compound 8 (KYN-119) to enable a more accurate assessment of its low IC50 value. […]

The subject of another test is Pancreatic MIA PaCa-2. Put plainly: CellTiter Glo cell viability assay. As to conditions: read-out: IC50. The method, then: as §1, §2, §3
Day 3 upon treatment of MIA PaCa_2 pancreatic cancer cells, 24 h after plating (11 dilutions), as assessed by CellTiter Glow Assay.

The next test has as its system Bladder RT-112. Put plainly: CellTiter Glo cell viability assay. As to conditions: Homo sapiens, RT-112, 72 h, Table 4: 3 Days of treatment; 18 2-fold dilutions 5-0.00003 μM; Average (1, 8) or single Exp A-D; read-out: IC50. The method, then: as §1, §2, §3
Another test deals with Kidney ACHN. Put plainly: CellTiter Glo cell viability assay. As to conditions: Homo sapiens, ACHN, 72 h; Table 4: 3 Days of treatment; 18 2-fold dilutions 5-0.00003 μM; Average (1, 8) or single Exp A-D; read-out: IC50. The procedure: as §1, §2, §3
Another test concerns Breast MDA-MB-231. Put plainly: CellTiter Glo cell viability assay. As to conditions: Homo sapiens, read-out: IC50. The procedure: as §1, §2, §3
The next test has as its system Colon SW_480. Put plainly: CellTiter Glo cell viability assay. As to conditions: Homo sapiens, SW480, 72 h; Day 3 upon drug treatment; 10 dosages 0.0001-20 μM; read-out: IC50.
Where [2] appears, read: Homo sapiens, A498, 72 h, Table 4: 3 Days of treatment, 18 2-fold dilutions 5-0.00003 μM, Average (1, 8) or single Exp A-D.
[3] abbreviates: Homo sapiens, A498, Table 5A: 11 dilutions 3-0.00001 μM, single experiments Exp E-K.
Setting [4] is: Table 5A: 11 dilutions 3-0.00001 μM, single experiments Exp E-K.
[5] abbreviates: Homo sapiens, MIA PaCa-2, Table 5A: 11 dilutions 3-0.00001 μM, single experiments Exp E-K.

Where two headings read alike, the source gives them in different places.

Turning to `C/C=C/Cc1c(/C=C/c2ccc(O)c(OC)c2)cc(O)cc1OC` [Compound 2, 4-((E)-but-2-en-1-yl)-3-((E)-4-hydroxy-3-methoxystyryl)-5-methoxyphenol], the “Cancer cell viability inhibition, statement in words” value (from here on “Cancer cell viability inhibition”) in test [1] was “biological activity comparable with 1”. The IC50 – broadly, the concentration needed to halve the response being measured – in the test with Kidney A-498 (setting [2]) is 0.117 µM; in the test with Kidney A-498 (setting [3]), 0.1 to 1 µM; in the test on Kidney A-498 (setting [4]), 0.132 µM; with Pancreatic MIA PaCa-2 (Homo sapiens, MIA PaCa-2, 72 h, Table 4: 3 Days of treatment, 18 2-fold dilutions 5-0.00003 μM, Average (1, 8) or single Exp A-D), 0.119 µM; in the test with Pancreatic MIA PaCa-2 (setting [5]), 0.1 to 1 µM; in the test on Pancreatic MIA PaCa-2 (setting [4]), 0.135 µM.
In the case of `C=CCc1c(/C=C/c2ccc(O)c(OC)c2)cc(O)cc1OC` [Compound 6, (E)-4-allyl-3-(4-hydroxy-3-methoxystyryl)-5-methoxyphenol], the half-inhibitory concentration (IC50) with Bladder RT-112 turned out to be 0.862 µM; in the test with Kidney A-498 (setting [2]), 1.59 µM; in the test on Kidney A-498 (setting [3]), 1.09 µM; with Pancreatic MIA PaCa-2 (setting [5]), 1.28 µM.
On to `COc1cc(/C=C/c2cc(O)cc(OC)c2Cc2ccccc2)ccc1O` [Compound 7, (E)-4-benzyl-3-(4-hydroxy-3-methoxystyryl)-5-methoxyphenol], for which the IC50 in the test on Bladder RT-112 is 0.17 µM; in the test with Kidney A-498 (setting [2]), 0.288 µM; in the test with Kidney A-498 (setting [3]), 0.1 to 1 µM; in the test on Kidney A-498 (setting [4]) it was 0.199 µM.
Turning to `CCCOc1cc(O)cc(/C=C/c2ccc(O)c(OC)c2)c1CC=C(C)C` [Compound 9, (E)-3-(4-hydroxy-3-methoxystyryl)-4-(3-methylbut-2-en-1-yl)-5-propoxyphenol], the “Cancer cell viability inhibition” value in test [1] is given as “comparable or weaker biological activity”. Also, the IC50 in the test with Bladder RT-112 is 0.022 µM; in the test on Kidney ACHN it was 0.609 µM; in the test on Kidney A-498 (setting [2]) it was 0.019 µM; in the test with Kidney A-498 (setting [3]), 0.1 to 1 µM; in the test with Kidney A-498 (setting [4]), 0.147 µM; in the test on Pancreatic MIA PaCa-2 (setting [5]) it was 0.1 to 1 µM. In addition, the IC50 in the test with Pancreatic MIA PaCa-2 (setting [4]) turned out to be 0.115 µM.
On to `COc1cc(O)cc(/C=C/c2ccc(O)c(N(C)C)c2)c1CC=C(C)C` [Compound 16, (E)-3-(3-(Dimethylamino)-4-hydroxystyryl)-5-methoxy-4-(3-methylbut-2-en-1-yl)phenol], for which the “Cancer cell viability inhibition” value in test [1] was “inactive or weakly active”. The IC50 in the test with Kidney A-498 (setting [3]) and with Pancreatic MIA PaCa-2 (setting [5]) was over 3 µM in each case.
As for `COc1cc(O)cc(/C=C/c2cc(O)cc(OC)c2CC=C(C)C)c1` [Compound 19, (E)-3-(3-Hydroxy-5-methoxystyryl)-5-methoxy-4-(3-methylbut-2-en-1-yl)phenol], the “Cancer cell viability inhibition” value in test [1] is “strongly weakened activity”. Further, the figures for the IC50 with Kidney A-498 (setting [3]) and in the test with Pancreatic MIA PaCa-2 (setting [5]) were over 3 µM and 0.921 µM, respectively.
For `COc1cc(/C=C/c2cc(O)cc(OC)c2CC=C(C)C)ccc1[N+](=O)[O-]` [Compound 22, (E)-3-Methoxy-5-(3-methoxy-4-nitrostyryl)-4-(3-methylbut-2-en-1-yl)phenol], the “Cancer cell viability inhibition” value in test [1] is on record as “Loss of the anti-proliferative effect”. For the same compound, the IC50 in the test with Breast MDA-MB-231 (MDA-MB-231, 120 h, Day 5 upon drug treatment, 10 dosages 0.0001-20 μM (Compound 8: 18 dosages 0.000038146 to 5 μM)) is 6.2 µM.
As for `COc1cc(/C=C\c2cc(O)cc(OC)c2CC=C(C)C)ccc1NS(C)(=O)=O` [Compound 26, (Z)—N-(4-(5-hydroxy-3-methoxy-2-(3-methylbut-2-en-1-yl)styryl)-2-methoxyphenyl)methanesulfonamide], the “Cancer cell viability inhibition” value in test [1] is reported as “Total loss of the anti-proliferative effect”.
As for `CCOc1cc(O)cc(/C=C/c2ccc(NC=O)c(O)c2)c1CC=C(C)C` [Compound 40, (E)-N-(4-(3-Ethoxy-5-hydroxy-2-(3-methylbut-2-en-1-yl)styryl)-2-hydroxyphenyl)formamide], in test [1], the “Cancer cell viability inhibition” value is on record as “very strongly weakened activity”. The figures for the IC50 in the test with Kidney A-498 (setting [3]) and in the test on Pancreatic MIA PaCa-2 (setting [5]) were 2.93 µM and over 3 µM, respectively.
As for `CCOc1cc(O)cc(/C=C/c2ccc(O)c(NC=O)c2)c1CC=C(C)C` [Compound 41, (E)-N-(5-(3-Ethoxy-5-hydroxy-2-(3-methylbut-2-en-1-yl)styryl)-2-hydroxyphenyl)formamide], in test [1], the “Cancer cell viability inhibition” value was “inactive or weakly active”. Moreover, the IC50 with Pancreatic MIA PaCa-2 (setting [5]) was over 3 µM.
As to `COc1cc(/C=C/c2cc([N+](=O)[O-])cc(OC)c2CC=C(C)C)ccc1O` [Compound 42, (E)-2-Methoxy-4-(3-methoxy-2-(3-methylbut-2-en-1-yl)-5-nitrostyryl)phenol], the “Cancer cell viability inhibition” value in test [1] was “almost complete loss of anticancer activity”. Moreover, the IC50 in the test with Kidney A-498 (setting [3]) is about 3 µM.
Consider `COc1cc(/C=C/c2cc(N)cc(OC)c2CC=C(C)C)ccc1O` [Compound 43, (E)-4-(5-Amino-3-methoxy-2-(3-methylbut-2-en-1-yl)styryl)-2-methoxyphenol], for which, in test [1], the “Cancer cell viability inhibition” value was “No significant enhancement of activity”. The IC50 in the test on Kidney A-498 (setting [3]) and in the test on Pancreatic MIA PaCa-2 (setting [5]) was about 3 µM in each case.
For the compound `COc1cc(/C=C/c2cc(NC=O)cc(OC)c2CC=C(C)C)ccc1O` [Compound 44, (E)-N-(3-(4-Hydroxy-3-methoxystyryl)-5-methoxy-4-(3-methylbut-2-en-1-yl)phenyl)formamide], in test [1], the “Cancer cell viability inhibition” value is given as “No significant enhancement of activity”. In addition, the IC50 was 2.04 µM with Kidney A-498 (setting [3]) and 1.16 µM in the test on Pancreatic MIA PaCa-2 (setting [5]).
As for `COc1cc(/C=C/c2cc(O)cc(OC)c2Br)ccc1O` [Compound 45, (E)-4-Bromo-3-(4-hydroxy-3-methoxystyryl)-5-methoxyphenol], the IC50 in the test with Colon SW_480 was 10.8 µM; in the test on Breast MDA-MB-231 (MDA-MB-231, 72 h, Day 3 upon drug treatment, 10 dosages 0.0001-20 μM) it was about 10.3 µM; with Pancreatic MIA PaCa-2 (Homo sapiens, MIA PaCa-2, 72 h, Day 3 upon drug treatment, 10 dosages 0.0001-20 μM), 20.4 µM.
Regarding `COc1cc(/C=C/c2cc(O)cc(C(F)(F)F)c2CC=C(C)C)ccc1O` [Compound 46, (E)-3-(4-hydroxy-3-methoxystyryl)-4-(3-methylbut-2-en-1-yl)-5-(trifluoromethyl)phenol], the “Cancer cell viability inhibition” value in test [1] was “complete loss of biological activity”.
On the same count and under the same terms, then `CCOc1cc(O)cc(/C=C/c2ccc3[nH]c(=O)oc3c2)c1CC=C(C)C` [Compound 52, (E)-6-(3-Ethoxy-5-hydroxy-2-(3-methylbut-2-en-1-yl)styryl)benzo[d]oxazol-2(3H)-one], with “no significant activity”.

Source of the values: US20260209152A1, “Substituted Hydroxystilbene Compounds and Derivatives, Synthesis and Uses Thereof” (Kynan Duke IP, LLC, priority 2019, published 2026).
